Data published in patent US20060281719A1, “Oestrogen-17-sulphamates as inhibitors of steroid sulphatase” (priority 2000, published 2006).
“And” between values parts separate entries of the source, which are not always exact repeats. Identical values can stand only once. Like-named read-outs stand apart in the source and are kept apart here. Each block holds one compound with its values, some of them ahead of it.

How the values were obtained:
[1] = target: T1, oestrone sulphatase (E1-STS) (Homo sapiens, UniProt P08842); assay: Inhibition of steroid sulphatase activity in placental microsomes; assay type: biochemical; design: from tissue; host or cells: human term placenta (microsomal preparation); details: for inhibition at 0.01 µM / inhibition at 1 µM: read-out: Placental Microcsomes % inhibition
T1 sequence (P08842 22-583): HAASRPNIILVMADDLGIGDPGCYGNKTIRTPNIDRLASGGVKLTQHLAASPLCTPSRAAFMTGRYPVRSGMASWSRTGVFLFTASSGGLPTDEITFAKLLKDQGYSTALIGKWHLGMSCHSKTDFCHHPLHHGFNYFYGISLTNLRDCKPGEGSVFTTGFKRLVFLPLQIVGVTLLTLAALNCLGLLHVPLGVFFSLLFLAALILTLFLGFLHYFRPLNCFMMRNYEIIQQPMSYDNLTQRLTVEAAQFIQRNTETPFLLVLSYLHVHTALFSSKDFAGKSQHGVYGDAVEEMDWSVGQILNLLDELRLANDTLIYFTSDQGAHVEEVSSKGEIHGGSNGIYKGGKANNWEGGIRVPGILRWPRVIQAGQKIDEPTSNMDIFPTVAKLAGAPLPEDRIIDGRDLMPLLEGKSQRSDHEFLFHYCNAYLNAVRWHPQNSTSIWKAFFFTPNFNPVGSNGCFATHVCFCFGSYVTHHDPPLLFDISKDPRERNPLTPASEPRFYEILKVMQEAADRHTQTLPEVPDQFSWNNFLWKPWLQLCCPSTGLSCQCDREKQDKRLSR

Plate assay % inhibition = assay type: cell-based; details: -ve % means stimulation
[2] = target: T1, oestrone sulphatase (E1-STS); assay: Inhibition of steroid sulphatase (E1-STS) activity in intact MCF-7 breast cancer cells; assay type: cell-based

melting point: 82 to 86 °C (dec.)
Structure (SMILES): CN(C)S(=O)(=O)O[C@@H]1CCC2C3CCc4cc(OCc5ccccc5)ccc4C3CC[C@@]21C (some centres unmarked)

Structure (SMILES): CCCCCN(CCCCC)S(=O)(=O)O[C@H]1CCC2C3CCc4cc(O)ccc4C3CC[C@@]21C (stereo partly drawn) [BLE99073, 3-Hydroxyestra-1,3,5(10)-trien-17β-O—(N,N-dipentyl)sulfamate]
inhibition at 0.01 µM [1]: 1.2%
inhibition at 1 µM [1]: -11.8%
melting point: 93 to 96 °C

Structure (SMILES): CC1=C2CCC3c4ccc(OS(N)(=O)=O)cc4CCC3C2CC1 (centres unmarked) [BLE00086]
inhibition at 0.1 µM (Plate assay % inhibition; 0.1 μM): 8%
inhibition at 1 µM (Plate assay % inhibition; 1 μM): 3%
inhibition at 10 µM (Plate assay % inhibition): 14%

melting point: 108 to 109 °C
Structure (SMILES): C[C@]12CCC3c4ccc(OCc5ccccc5)cc4CCC3C1CC[C@@H]2OS(N)(=O)=O (some centres unmarked)

Structure (SMILES): C[C@]12CCC3c4ccc(OS(N)(=O)=O)cc4CCC3C1CC[C@@H]2OS(=O)(=O)N(Cc1ccccc1)Cc1ccccc1 (stereo partly drawn) [BLE99063, 3-O-Sulfamoyl-estra-1,3,5(10)-trien-17β-O—(N,N-dibenzyl)sulfamate]
inhibition at 0.01 µM ([1]; 10 nM, -ve % means stimulation): -1.9%
inhibition at 1 µM ([1]; 1 μM, -ve % means stimulation): 38.2%
melting point: 60 to 64 °C and 58 to 62 °C

Structure (SMILES): CC(=O)NS(=O)(=O)O[C@H]1CCC2C3CCc4cc(O)ccc4C3CC[C@@]21C (stereo partly drawn) [BLE99058, 3-Hydroxyestra-1,3,5(10)-trien-17β-O-(N-acetyl)sulfamate]
inhibition at 0.01 µM ([1]; 10 nM, -ve % means stimulation): 0.9%
inhibition at 1 µM ([1]; 1 μM, -ve % means stimulation): 7.8%
melting point: 130 to 134 °C (dec.)

Structure (SMILES): COc1cc2c(cc1O)CCC1C2CC[C@@]2(C)C1CC[C@@]2(O)Cc1ccc(C(C)(C)C)cc1 (some centres unmarked) [BLE01008]
Plate assay % inhibition (Plate assay % inhibition; 0.1 μM): −12%
Plate assay % inhibition (Plate assay % inhibition; 1 μM): −15%

Structure (SMILES): CN(C)S(=O)(=O)O[C@H]1CC[C@H]2[C@@H]3CCc4cc(OS(N)(=O)=O)ccc4[C@H]3CC[C@]12C [BLE99069, 3-O-Sulfamoyl-estra-1,3,5(10)-trien-17β-O—(N,N-dimethyl)sulfamate]
Placental Microcsomes % inhibition ([1]; 10 nM, -ve % means stimulation): 30.3^1%
Placental Microcsomes % inhibition ([1]; 1 μM, -ve % means stimulation): 96.3^1%
Plate assay % inhibition (Plate assay % inhibition; 0.1 μM): 3%
Plate assay % inhibition (Plate assay % inhibition; 1 μM): 10%

Structure (SMILES): CC12CCC3c4ccc(OS(N)(=O)=O)cc4CCC3C1CCC2OS(N)(=O)=O (centres unmarked) [BLE99031B]
inhibition at 0.1 µM (Plate assay % inhibition; 0.1 μM): 7%
inhibition at 1 µM (Plate assay % inhibition; 1 μM): 12%
inhibition at 10 µM (Plate assay % inhibition): 32%

Structure (SMILES): COc1cc2c(cc1O)CCC1C2CC[C@@]2(C)C1CC[C@@]2(O)Cc1ccccc1 (some centres unmarked) [BLE01014]
Plate assay % inhibition (Plate assay % inhibition; 0.1 μM): −14%
Plate assay % inhibition (Plate assay % inhibition; 1 μM): −14%

Structure (SMILES): CCCCCN(CCCCC)S(=O)(=O)O[C@@H]1CC[C@H]2[C@@H]3CCc4cc(O)ccc4[C@H]3CC[C@]12C [BLE00082, 3-Hydroxyestra-1,3,5(10)-trien-17α-O—(N,N-dipentyl)sulfamate]
Plate assay % inhibition (Plate assay % inhibition; 1 μM): 24%

Structure (SMILES): COc1cc2c(cc1OS(N)(=O)=O)CCC1C2CCC2(C)C1CCC2(O)Cc1ccccc1 (centres unmarked) [BLE01018]
inhibition at 0.1 µM (Plate assay % inhibition; 0.1 μM): -19%
inhibition at 1 µM (Plate assay % inhibition; 1 μM): -12%

Structure (SMILES): NS(=O)(=O)Oc1ccc2c(c1)C(=O)c1ccc(OS(N)(=O)=O)cc1C2=O [Compound 10, Anthraquinone-2,6-O,O-bis-sulphamate]
% Inhibition of E1-STS activity in MCF-7 cells ([2]; 0.1 μM): 93% and 93.1 ± 2.1%
% Inhibition of E1-STS activity in MCF-7 cells ([2]; 1 μM): 98.6 ± 1.0%
% Inhibition of E1-STS activity in MCF-7 cells ([2]; 10 μM): 99.1 ± 0.1%
% Inhibition of E1-STS activity in placental microsomes ([1]; 25 µM): 95.7 ± 0.5%
% Inhibition of E1-STS activity in placental microsomes ([1]; 50 µM): 97.2 ± 0.3%
% Inhibition of E1-STS activity in placental microsomes ([1]; 100 µM): 97.7 ± 0.1%

% Inhibition of E1-STS activity in MCF-7 cells ([2]; 0.1 μM): <10%
% Inhibition of E1-STS activity in MCF-7 cells ([2]; 1 μM): 30.7 ± 5.6%
% Inhibition of E1-STS activity in MCF-7 cells ([2]; 10 μM): 87.2 ± 1.8%
% Inhibition of E1-STS activity in placental microsomes ([1]; 10 μM): 18.8 ± 1.3%
% Inhibition of E1-STS activity in placental microsomes ([1]; 25 µM): 30.7 ± 3.4%
% Inhibition of E1-STS activity in placental microsomes ([1]; 50 µM): 43.7 ± 2.6%
% Inhibition of E1-STS activity in placental microsomes ([1]; 100 µM): 58.3 ± 0.1%
Structure (SMILES): NS(=O)(=O)Oc1cccc(C(=O)c2cccc(O)c2)c1 [Compound 29, 3′-hydroxybenzophenone-3-O-sulphamate]
